Here are results for four compounds from PMC6002953 (ACS chemical neuroscience, 2017).

“And” between values parts separate entries of the source, which are not always exact repeats. Equal entries are not always repeated. Where two headings read alike, the source gives them in different places.

By Kd is commonly meant the concentration at which binding is half-saturated. As a reminder, the Papp A→B is the apparent permeability from the apical to the basolateral side of a cell layer. A higher Papp A→B goes with ready permeation. For orientation: Papp B→A means the apparent permeability from the basolateral to the apical side of a cell layer. The term efflux ratio denotes the permeability from basolateral to apical divided by that in the opposite direction, in the common usage. Broadly, the kinetic solubility is the concentration staying in solution when a stock, usually in DMSO, is diluted into the medium. By IC50 is commonly meant the concentration that inhibits the measured activity by half.

Series [1] deals with MDCK-MDR1 monolayers. The series can be described thus: BBB permeability, bidirectional transport through MDCK-MDR1 monolayers. As to conditions: 10 μM test article, single determination.
Series [2] addresses T1, human OX2 receptor (Homo sapiens, UniProt O43614).
T1 sequence (O43614 1-444): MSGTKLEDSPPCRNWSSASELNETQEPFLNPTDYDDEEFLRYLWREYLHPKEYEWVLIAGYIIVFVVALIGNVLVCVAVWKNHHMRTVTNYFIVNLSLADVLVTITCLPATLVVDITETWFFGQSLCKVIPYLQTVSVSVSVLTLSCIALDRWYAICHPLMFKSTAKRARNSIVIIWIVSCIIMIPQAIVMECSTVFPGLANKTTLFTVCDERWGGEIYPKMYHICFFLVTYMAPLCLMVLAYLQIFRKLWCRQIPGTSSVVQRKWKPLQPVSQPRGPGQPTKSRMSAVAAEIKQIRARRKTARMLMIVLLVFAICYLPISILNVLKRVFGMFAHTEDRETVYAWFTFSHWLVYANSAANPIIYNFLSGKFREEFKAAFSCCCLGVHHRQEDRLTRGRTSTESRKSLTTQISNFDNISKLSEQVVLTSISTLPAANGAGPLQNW
The series can be described thus: Calcium mobilization Ke assay, OX2. Format: cell-based.

Series [3] concerns the target T2, human OX1 receptor (Homo sapiens, UniProt O43613).
T2 sequence (O43613 1-425): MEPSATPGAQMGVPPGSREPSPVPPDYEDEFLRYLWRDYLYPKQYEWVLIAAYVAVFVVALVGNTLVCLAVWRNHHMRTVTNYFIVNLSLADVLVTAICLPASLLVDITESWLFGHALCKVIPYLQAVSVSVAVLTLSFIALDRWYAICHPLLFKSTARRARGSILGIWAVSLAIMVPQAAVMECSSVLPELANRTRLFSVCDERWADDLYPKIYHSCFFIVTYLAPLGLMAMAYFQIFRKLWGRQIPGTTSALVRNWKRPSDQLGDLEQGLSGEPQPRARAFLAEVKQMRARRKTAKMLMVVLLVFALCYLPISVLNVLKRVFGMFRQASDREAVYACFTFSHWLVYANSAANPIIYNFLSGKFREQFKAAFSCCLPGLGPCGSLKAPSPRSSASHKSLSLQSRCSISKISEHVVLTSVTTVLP
The series can be described thus: Calcium mobilization Ke assay, OX1. Particulars: for OX2/OX1: ratio of Ke values OX2/OX1. Format: cell-based.

The test system of series [4] is P-glycoprotein (MDR1). The experiment in a line: BBB permeability, bidirectional transport through MDCK-MDR1 monolayers. Particulars: dog, MDCK-MDR1, pH 7.4.
A short description of series [5]: Kinetic solubility in PBS pH 7.4. It counts as physicochemical. Particulars: pH 7.4, aqueous buffer, kinetic from dmso stock.
Series [6] concerns OX1. As to conditions: cited from earlier work.

With `COc1ccc(CC2c3cc(OCC(F)(F)F)c(OC)cc3CCN2CC(=O)NCc2cccnc2)cc1OC` (stereo not shown) [Compound 5, reference compound], in series [1] (MDCK-MDR1, apical-to-basolateral), the “Papp A-to-B” value is given as 12.2 10^−6 cm/sec. The “Papp B-to-A” value in series [1] (MDCK-MDR1, basolateral-to-apical) is 36.2 10^−6 cm/sec.

Consider `COc1cc2c(cc1N(C)C)C(Cc1cccc(N(C)C)c1)N(CC(=O)NCc1ccccc1)CC2` (stereo not shown) [Compound 42, N-Benzyl-2-[7-(dimethylamino)-1-{[3-(dimethylamino)phenyl]methyl}-6-methoxy-1,2,3,4-tetrahydroisoquinolin-2-yl]acetamide], for which the Kd in series [2] worked out at 1360 nM. Further, in series [3], the Kd is 148 ± 36 nM and the OX2/OX1 stood at 9.1.

As to `COc1ccc(CC2c3cc(N(C)C)c(OC)cc3CCN2CC(=O)NCc2cccnc2)cc1N(C)C` (stereo not shown) [Compound 44, 2-[7-(Dimethylamino)-1-{[3-(dimethylamino)-4-methoxyphenyl]methyl}-6-methoxy-1,2,3,4-tetrahydroisoquinolin-2-yl]-N-(pyridin-3-ylmethyl)acetamide], in series [4], the Papp A→B at 90 min, 10 μM was found to be 14.7 ×10⁻⁶ cm/s; the Papp B→A at 90 min, 10 μM was 47.8 ×10⁻⁶ cm/s; the efflux ratio at 90 min, 10 μM stood at 3.3. In addition, in series [2], the dissociation constant (Kd) was greater than 10000 nM. Moreover, in series [3], the Kd worked out at 5.7 ± 1 nM and the OX2/OX1 is on record as >1,760. For the same compound, the “selectivity over OX2” value in series [3] (OX1 over OX2, calcium mobilization assays) was > 1,760 fold and > 1,000 fold. Further, the kinetic solubility at 2 h in series [5] is greater than 200 µM.

`Cc1nc2ccc(NC(=O)Nc3ccnc4cccnc34)cc2o1` [SB334867]: the “selectivity over OX2” value in series [6] is recorded as 50 ×; in series [6] (listed as 3) it was ~ 50 ×. Moreover, the IC50 in series [6] (read-out: IC50 (OX1), commonly used OX1 antagonist) was 40 nM.
